In paper PMC10673058, “In Silico and In Vitro Search for Dual Inhibitors of the Trypanosoma brucei and Leishmania major Pteridine Reductase 1 and Dihydrofolate Reductase” (Molecules, 2023):
Where two headings read alike, the source gives them in different places.

Key:
TbDHFR = molecular target: T1, TbDHFR (Trypanosoma brucei brucei, UniProt Q27783); experiment: Spectrophotometric enzyme inhibition assay, recombinant TbDHFR; type: biochemical; details: read-out: IC50 TbDHFR
T1 construct: pET 11D::TbDHFRHis vector design for the recombinant overexpression of TbDHFR in E. coli; His; made in house; host or cells: E. coli BL21(DE3), vector pET 11D::TbDHFRHis
T1 sequence (Q27783 28-238 limits assumed): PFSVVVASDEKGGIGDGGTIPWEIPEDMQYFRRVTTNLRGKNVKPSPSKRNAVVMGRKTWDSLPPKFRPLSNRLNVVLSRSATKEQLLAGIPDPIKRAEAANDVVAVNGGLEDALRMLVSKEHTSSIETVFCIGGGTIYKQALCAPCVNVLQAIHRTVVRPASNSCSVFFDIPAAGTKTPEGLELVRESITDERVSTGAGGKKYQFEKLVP
Method: (§1) Based on the in vitro assays against TbPTR1 and LmPTR1 performed in the previous works of our group, as well as the in silico results obtained from the current study, a total of 47 natural products were tested against the target enzymes.
The saturating conditions for TbDHFR and LmDHFR were determined using the diagrams depicted in Figures S17 and S19 in the Supplementary Materials.
(§2) The inhibitory effect of the selected natural products was investigated by testing the DMSO solution of each compound at a constant concentration of 100 μM for TbPTR1 and 50 μM for LmPTR1, TbDHFR, and LmDHFR, as well as hDHFR. The concentrations of the cofactor and substrates were set at the previously determined saturating conditions (Section 4.2.5). Each test compound was incubated for 20 min with the respective enzyme and NADPH to ensure a sufficient interaction time before the reaction was induced by the addition of the substrate. The enzymatic activity was determined in duplicates and correlated with a reference that contained just DMSO, instead of an inhibitor. The enzymatic activity of the reference was normalized to 100%.
(§3) The half-maximal inhibitory concentration (IC50) of the natural products was determined in triplicate, using at least five different inhibitor concentrations against a reference containing no inhibitor. The enzymatic activity was documented and analyzed and the IC50 value was determined by nonlinear regression using GraphPad Prism 9 (GraphPad Software Inc., La Jolla, CA, USA).

LmPTR1 [1] = molecular target: T2, LmPTR1 (Leishmania major, UniProt Q01782); experiment: Spectrophotometric enzyme inhibition assay, recombinant LmPTR1; type: biochemical
T2 construct: His6 (N); made in house; host or cells: E. coli BL21 (DE3), vector pET 15b::LmPTR1His (strain from the group of M. Paola Costi, Modena)
T2 sequence (Q01782 1-288): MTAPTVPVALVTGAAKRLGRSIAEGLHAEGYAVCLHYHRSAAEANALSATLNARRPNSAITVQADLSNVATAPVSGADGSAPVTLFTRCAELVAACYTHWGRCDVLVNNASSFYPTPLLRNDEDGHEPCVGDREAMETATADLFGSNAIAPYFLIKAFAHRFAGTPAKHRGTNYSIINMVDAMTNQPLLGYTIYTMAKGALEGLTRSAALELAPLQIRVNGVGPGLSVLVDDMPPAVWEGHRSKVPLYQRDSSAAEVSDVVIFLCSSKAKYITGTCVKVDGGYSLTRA
Method: as §1, with “enzymes. […] The concentration-effect curves for the IC50 and EC50 values that were obtained in the present study are depicted in Supplementary Materials Figures S21–S42.” for “enzymes.”
(§4) The used TbPTR1 concentration was 3.23 mg/mL, with a specific activity of 0.03 U/mg. The measurements were carried out using the enzyme’s individual saturating concentrations for folic acid (8 μM) and NADPH (150 μM) in Buffer A (50 mM Tris/HCl (pH 7.6), 250 mM NaCl). For LmPTR1, the protein concentration was 5.02 mg/mL and the specific activity was calculated to be 0.29 U/mg. Buffer B (50 mM NaH2PO4 (pH 6.0), 100 mM NaCl) was used for all LmPTR1 measurements and the saturating concentrations amounted to 50 μM of folic acid and 200 μM of NADPH. The saturating conditions of the PTR1 enzymes were determined using the diagrams depicted in Figures S16 and S18 in the Supplementary Materials.
as §2, §3

TbPTR1 [2] = molecular target: T3, TbPTR1 (Trypanosoma brucei brucei, UniProt O76290); experiment: Spectrophotometric enzyme inhibition assay, recombinant TbPTR1; type: biochemical; details: for EC50: read-out: EC50 TbPTR1 (footnote a)
T3 construct: His6 (N); made in house; host or cells: E. coli BL21 (DE3), vector pET 15b::TbPTR1His (strain from the group of M. Paola Costi, Modena)
T3 sequence (O76290 1-268): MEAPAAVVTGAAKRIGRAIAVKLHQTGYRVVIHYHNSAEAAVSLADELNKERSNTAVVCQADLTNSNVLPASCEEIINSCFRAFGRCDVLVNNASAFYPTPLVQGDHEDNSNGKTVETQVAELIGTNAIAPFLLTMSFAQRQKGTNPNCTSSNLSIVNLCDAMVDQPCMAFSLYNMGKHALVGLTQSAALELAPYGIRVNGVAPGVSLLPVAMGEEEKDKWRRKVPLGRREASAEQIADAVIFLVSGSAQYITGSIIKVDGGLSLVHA
Method: as §1, with “enzymes. […] The concentration-effect curves for the IC50 and EC50 values that were obtained in the present study are depicted in Supplementary Materials Figures S21–S42.” for “enzymes.”
as §4, §2, §3

TbPTR1 [3] = molecular target: T3, TbPTR1; experiment: Dilution assay for reversible/irreversible inhibition of TbPTR1; type: biochemical; details: inhibitor concentration near IC50
From the text: The catalytic center of TbPTR1 contains a cysteine residue (TbCys168) in close proximity to the substrate/inhibitor binding site. In our previous publication, we mentioned the possibility that Sesquiterpene Lactones 1 and 2 might interact as Michael acceptors with TbCys168 by covalent bond formation with its thiol group. Therefore, we have now subjected a selection of natural product inhibitors containing Michael acceptors (1, 2, 5, 17) to initial testing for irreversible inhibition, according to the dilution method described by Bisswanger (see Section 4.2.9).
In this method, the enzyme activity of the respective enzyme-inhibitor mixture is measured before and after a defined dilution (in this study, 1:2). In the absence of an inhibitor, dilution decreases the enzyme activity proportionally to the dilution factor. […] A reversible inhibitor, on the other hand, will dissociate upon dilution, resulting in a weaker decrease in activity than what corresponds to the dilution effect. In the presence of Inhibitors 1 and 2, the decrease in TbPTR1 activity upon the 1:2 dilution was almost proportional to the dilution factor, i.e., only 9.5% and 6.8% activity, respectively, were recovered compared to the reference. This would indeed support an irreversible mechanism of inhibition. […] However, further investigations on these compounds’ mechanisms of inhibition are under way.
To assign an either reversible or irreversible inhibition mechanism to selected compounds, the enzymatic activity of an enzyme-inhibitor mixture was determined before and after a defined dilution, using the reaction conditions described in Section 4.2.5 [16].
Two equivalent solutions with the respective enzyme and inhibitor combination were prepared, one of them being diluted with buffer in a 1:2 ratio shortly before the reaction was started by adding the substrate. The respective inhibitor concentration was set near the IC50 value. The substrate and cofactor concentrations were kept constant in both reaction mixtures. All measurements were carried out in duplicates against a reference containing DMSO instead of the inhibitor. […] If a reversible inhibitor was present, a higher degree of activity recovery (>>10%) could be observed than what corresponds to the dilution factor due to the partial dissociation of the inhibitor from the enzyme upon dilution. The percentual changes in the enzymatic activity of the undiluted and diluted test solution were compared and evaluated to decide the mechanism of inhibition.

hDHFR = molecular target: T4, hDHFR (Homo sapiens, UniProt P00374); experiment: Spectrophotometric enzyme inhibition assay, recombinant hDHFR (selectivity); type: biochemical; details: for inhibition at 50 µM: set compound concentration of 50 μM, read-out: relative inhibition of hDHFR
T4 construct: His; host or cells: E. coli BL21 (DE3), vector pET 15b::hDHFRHis
T4 sequence (P00374 1-187): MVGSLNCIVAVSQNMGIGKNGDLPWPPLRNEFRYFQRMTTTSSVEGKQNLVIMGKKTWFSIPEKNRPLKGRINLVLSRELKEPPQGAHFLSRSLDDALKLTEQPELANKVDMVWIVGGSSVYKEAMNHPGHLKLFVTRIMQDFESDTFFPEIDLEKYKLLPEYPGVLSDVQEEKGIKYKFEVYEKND
Method: For 15 compounds, there was enough substance available to be tested in selectivity studies against hDHFR.
The used hDHFR concentration was 0.64 mg/mL, with a specific activity of 0.62 U/mg. All measurements were carried out using the saturating concentrations for dihydrofolate (100 μM) and NADPH (50 μM) in Buffer C (50 mM Tris/HCl (pH 7.6), 250 mM NaCl, 10 mM BME). The saturating conditions for hDHFR were determined using the diagrams depicted in Figure S20 in the Supplementary Materials.
as §2, §3

LmDHFR = molecular target: T5, LmDHFR (Leishmania major, UniProt P07382); experiment: Spectrophotometric enzyme inhibition assay, recombinant LmDHFR; type: biochemical
T5 construct: The DNA fragment encoding LmDHFR was amplified by Phusion DNA polymerase; His6 (N); made in house; host or cells: E. coli BL21(DE3), vector pET 11D::LmDHFRHis
T5 sequence (P07382 26-229 limits assumed): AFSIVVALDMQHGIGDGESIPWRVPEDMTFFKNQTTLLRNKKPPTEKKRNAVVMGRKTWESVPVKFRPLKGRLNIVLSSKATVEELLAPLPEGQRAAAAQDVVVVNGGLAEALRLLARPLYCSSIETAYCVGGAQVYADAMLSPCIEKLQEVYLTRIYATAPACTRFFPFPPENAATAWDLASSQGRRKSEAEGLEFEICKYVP
Method: as §1, with “enzymes. […] The concentration-effect curves for the IC50 and EC50 values that were obtained in the present study are depicted in Supplementary Materials Figures S21–S42.” for “enzymes.”
The TbDHFR concentration was measured to be 0.04 mg/mL and a specific activity of 38.1 U/mg was calculated. The concentration of LmDHFR was 0.05 mg/mL with a specific activity of 56.2 U/mg. All measurements were carried out using the saturating concentrations for dihydrofolate (50 μM) and NADPH (150 μM) in Buffer C (50 mM Tris/HCl (pH 7.6), 250 mM NaCl, 10 mM BME). The saturating conditions for TbDHFR and LmDHFR were determined using the diagrams depicted in Figures S17 and S19 in the Supplementary Materials.
as §2, §3

LmPTR1 [4] = molecular target: T2, LmPTR1; parameters: method as in PMID 29211037; details: read-out: IC50 LmPTR1; from previous study; cited from earlier work

## CC(C)=CCC/C(C)=C/COc1ccc2oc3cc(O)cc(O)c3c(=O)c2c1 [Compound 15]
TbDHFR
  IC50: 2.9 µM
LmPTR1 [1]; read-out: IC50 LmPTR1
  IC50: > 50 µM
TbPTR1 [2]
  EC50: 32.4 µM

## COc1ccc2c(c1)CCN=C2Cc1cc(OCc2ccccc2)c(OC)cc1C [Compound 19]
TbDHFR
  IC50: > 50 µM
TbPTR1 [2]; read-out: IC50 TbPTR1
  IC50: 75.1 µM

## C=C(CO)C(=O)O[C@H]1CC(=C)[C@@H]2C[C@H](O)C(=C)[C@@H]2[C@H]2OC(=O)C(=C)[C@@H]21 [Compound 2, cynaropicrin]
TbDHFR; recombinant enzyme, >50 = <50% inhibition at 50 μM
  IC50: 7.12 µM
TbPTR1 [3]
  TbPTR1 activity recovered upon 1:2 dilution compared to the reference: 6.8%
LmPTR1 [1]
  IC50: > 50 µM
  inhibitory effect against LmPTR1: No relevant inhibitory effect
hDHFR
  IC50: > 50 µM
  inhibition of hDHFR: no relevant inhibition

## COc1cc([C@@H]2Oc3cc(-c4oc5cc(O)cc(O)c5c(=O)c4O)ccc3O[C@H]2CO)ccc1O [Compound 4, 2,3-dehydrosilybin B]
LmDHFR
  IC50: 2.6 µM
hDHFR; read-out: EC50 hDHFR (footnote a)
  EC50: 3.8 µM
hDHFR
  inhibition at 50 µM: > 50%
LmPTR1 [4]
  IC50: 42.9 µM
TbPTR1 [2]
  IC50: > 100 µM

## CC(C)=CCc1c(O)ccc(C(=O)CCc2ccc(O)cc2)c1O [Compound 16]
TbDHFR
  IC50: 11.7 µM
LmPTR1 [1]; read-out: IC50 LmPTR1
  IC50: > 50 µM
TbPTR1 [2]; read-out: IC50 TbPTR1
  IC50: 64.6 µM

## COc1c(CC=C(C)C)c(O)c([C@H](CC(C)C)c2c(O)c(CC=C(C)C)c(O)c(C(C)=O)c2O)c(O)c1C(C)=O [Compound 21, acrovestone]
TbDHFR
  IC50: 2.1 µM
LmPTR1 [1]; read-out: IC50 LmPTR1
  IC50: > 50 µM
hDHFR
  IC50: 19.8 µM
  inhibition at 50 µM: > 50%
TbPTR1 [2]
  EC50: 36.8 µM

## OC[C@H]1O[C@@H](Oc2c(O)cc(O)cc2/C=C/c2ccc(O)cc2)[C@H](O)[C@@H](O)[C@@H]1O [Compound 10]
TbDHFR
  IC50: > 50 µM
LmDHFR; read-out: IC50 LmDHFR
  IC50: > 50 µM
LmPTR1 [1]; read-out: IC50 LmPTR1
  IC50: > 50 µM
TbPTR1 [2]; read-out: IC50 TbPTR1
  IC50: 83.6 µM

## COc1cc(-c2oc3c(OC)c(O)cc(O)c3c(=O)c2OC)c(OC)c(OC)c1OC [Compound 23, 5,7-dihydroxy-3,3′,4′,5′,6′,8-hexamethoxyflavone]
TbPTR1 [3]
  TbPTR1 activity recovered upon 1:2 dilution compared to the reference: about 33%
